{"source": "patent US20070202158A1", "about": "“Methods Of Administering Water-Soluble Prodrugs Of Propofol For Extended Sedation” (MGI GP, Inc., priority 2003, published 2007)", "system": "Sprague-Dawley rats", "experiment": "Behavioral sedation rating (scale 0-4) in rats after oral, intravenous or intraduodenal prodrug", "type": "in vivo, rat", "text": "This example compares the dose-dependent pharmacological effects of a propofol prodrug of Formula I, O-phosphonooxymethyl propofol disodium salt, on rats when administered in a single oral dose to the pharmacological effects observed after an equipotent intravenous infusion. Young adult male Sprague-Dawley rats (250-300 g, Charles River Laboratories) received oral doses of vehicle (0.12% Tris/0.25% monothioglycerol/saline; n=4, per oral gavage) or of O-phosphonooxy-methyl propofol disodium salt at doses of 100, 200, 300 and 400 mg/kg, dissolved in vehicle at 35 mg/ml (n=2 per dose) or 200 mg/ml w/v (n=2 per dose).\nThe above-described pharmacological effects of oral administration of the tested prodrug were compared with those caused by an equipotent intravenous infusion: Under halothane anesthesia, young adult rats received femoral vein catheters which were exteriorized and attached to a liquid swivel via a protectant spring. About 20 minutes after catheterization, and after full behavioral recovery from halothane anesthesia, each animal was attached to an electronic infusion pump and was administered vehicle, or 5, 10, 20, 30, or 40 mg/kg of the test prodrug (n=2 per dose) in 1 ml total volume by gradual constant-rate intravenous infusion over 10 minutes. Behavioral rating as described above began immediately following the end of infusion.\nThe above-described efficacy of the tested prodrug when administered orally or intravenously was compared to a mode of administration that allows for the introduction of the prodrug directly into the gut. For this “gastric bypass” experiment, young adult male Sprague Dawley rats (225-250 g body wt.) underwent implantation of intraduodenal catheters to allow for intraduodenal instillation of an aqueous buffered solution of the prodrug. Following full recovery from catheter implantation surgery, various concentrations of O-phosphonooxymethyl propofol disodium salt in vehicle, or vehicle alone, were administered via the catheter in a constant volume of 2 ml/kg body weight to yield doses of 0, 20, 30, 50, 100, 200, 300, and 400 mg/kg body weight (n=2 per dose). Behavioral assessment was conducted as described above. […] The depth and duration of sedation, and the length of unconsciousness in the higher dose groups, depended on the administered dose."}
{"compound": "CC(C)c1cccc(C(C)C)c1OCOP(=O)([O-])[O-].[Na+].[Na+]", "note": "[O-phosphonooxymethyl propofol disodium salt]", "values": [{"measurement": "biological potency of the peak effect, oral/intragastric relative to intravenous administration", "value": "approximately 10%"}, {"measurement": "intraduodenal dose causing a pharmacological effect substantially similar to 40 mg/kg intravenous", "setting": "FIG. 3 vs 4", "value": 50, "unit": "mg/kg"}, {"measurement": "intraduodenal dose causing a pharmacological effect substantially similar to 400 mg/kg intragastrally", "setting": "FIGS. 1, 2 vs 4", "value": 100, "unit": "mg/kg"}, {"measurement": "intraduodenal dose expected to cause an effect substantially similar to IV 20-30 mg/kg", "setting": "extrapolated from FIGS. 1-4", "value": "about 40 mg/kg"}, {"measurement": "onset of sedative effect", "setting": "intraduodenal 20-400 mg/kg", "value": "Within five minutes"}, {"measurement": "behavioral effect following onset of sedation", "setting": "intraduodenal, higher dose groups", "value": "loss of consciousness in the higher dose groups"}, {"measurement": "behavioral effect", "setting": "intravenous infusion 5-40 mg/kg over 10 minutes", "value": "rapid-onset dose-dependent sedated/anesthetized state"}, {"measurement": "duration of sedated/anesthetized state", "setting": "intravenous vs oral administration", "value": "shorter durations as compared to oral administration"}, {"measurement": "oral bioavailability (conclusion of study)", "setting": "oral", "value": "orally bioavaliable"}, {"measurement": "behavioral effect compared to vehicle", "setting": "oral 100-200 mg/kg", "value": "mild to moderate sedation"}, {"measurement": "duration of mild to moderate sedation", "setting": "oral 100-200 mg/kg, printed 'and longer'", "value": "1 to 2", "unit": "h"}, {"measurement": "behavioral effect following onset of sedation", "setting": "oral 300 and 400 mg/kg dose groups", "value": "loss of consciousness"}, {"measurement": "onset of sedated behavior after dosing", "setting": "oral gavage 100-400 mg/kg", "value": "5 to 10", "unit": "min"}, {"measurement": "duration of loss of consciousness", "setting": "oral, highest dose group", "value": "up to 1 hour"}, {"measurement": "onset of sedated behavior after oral gavage", "setting": "oral/intragastric, 35 mg/ml w/v aqueous solution, FIG. 1", "value": "5 to 20", "unit": "min"}]}
